{"source": "paper PMC12501029", "about": "“Discovery of a CNS active GSK3 degrader using orthogonally reactive linker screening” (Nature Communications, 2025)", "key": {"[1]": {"system": "GSK3, total β-catenin, phospho-CRMP2", "experiment": "GSK3 and GSK3 substrates immunoblot in differentiated SH-SY5Y cells, 24 h", "assay_type": "cell-based, human", "procedure": "HEK293 cells purchased from ATCC and MEF cells were kindly gifted by MRC PPU reagents and services at the University of Dundee. HEK293 and MEF cells were maintained in DMEM (high glucose, GlutaMAX; Gibco) containing 10% foetal bovine serum (FBS; Thermo Fisher), 100U ML-1 penicillin-streptomycin (Thermo Fisher). HAP1 wild type and HAP1 Cereblon Knock-out cell line (CRBN-KO, HZGHC003752c001, Horizon) was a gift from the Ciulli Lab. HAP1 cells were cultured in IMDM (Gibco) with the same additives described as above. SH-SY5Y human neuroblastoma cells (ATCC, CRL-2266) maintained in DMEM (high glucose, Gibco) supplemented with same additives as above. For differentiation, 5 × 10^5 cells were seeded into each well of 6 well plates and differentiated into a more neuronal-like phenotype by treating for 5 days with 10 µM retinoic acid (F9665, Sigma), changing the media every day for the first 3 days[39],[40]. […]\nHEK293, HAP1, HAP1 CRBN KO and SH-SY5Y cells were plated in either 6 cm plates or 6-well plates at varying densities (0.5–0.7 × 10^6 cells per plate or wells), and MEF cells were plated in 10 cm plates (1–1.2 × 10^6 cells per plate) depending on experimental set up in respective culturing condition as described above. […] Following clearance of lysates, protein concentrations were determined by the BCA assay (Fisher Scientific, 23225) or Bradford assay (Bio-rad). […]"}, "[2]": {"system": "HEK293 cells phosphoproteome", "experiment": "Phosphoproteomics in HEK293 cells", "assay_type": "cell-based, human", "parameters": "scale not given here", "settings": "vs DMSO; phosphosite abundance difference; MOESM9", "procedure": "IMAC beads were prepared from Ni-NTA (nitrilotriacetic acid) superflow agarose beads. The nickel was stripped with 100 mM EDTA and incubated in an aqueous solution of 10 mM iron (III) chloride (FeCl3). Dried peptide fractions were reconstituted to a concentration of 0.5 μg/μL in 80% ACN/0.1% TFA. Peptide mixtures were enriched for phosphorylated peptides with 5 μL IMAC beads for 30 min with end-to-end rotation.\nEnriched IMAC beads were loaded on Empore C18 silica-packed stage tips. Stage tips were equilibrated with acetonitrile followed by 50% ACN/0.1% FA then 1% FA. The beads with enriched peptides were loaded onto C18 stage tips and washed with 80% ACN/0.1% TFA. Phosphorylated peptides were eluted from IMAC beads with 500 mM dibasic sodium phosphate, pH 7.0. These peptides were washed with 1% FA before elution using 50% acetonitrile in 0.1% FA. The peptides were then dried by SpeedVac and stored at −20 °C until mass spectrometry analysis. The dried phosphopeptides were reconstituted in 0.1% formic acid and analyzed on an Orbitrap Ascend mass spectrometer coupled to a Thermo Fisher Scientific Vanquish Neo UHPLC. […] The total run time was set to 155 min. A survey full scan MS (from m/z 350–1500) was acquired in the Orbitrap at a resolution of 120,000 at 200 m/z. The most intense ions with charge state ≥2 were isolated and fragmented using higher collision dissociation (HCD) fragmentation, with 30% normalised collision energy, and detected at a mass resolution of 50,000 at 200 m/z. The isolation window was set at 1.6. The phosphoproteomics raw data were searched using SEQUEST HT search engines with Proteome Discoverer 3.0 (Thermo Fisher Scientific). The following parameters were used for searches: Precursor mass tolerance 10 ppm, fragment mass tolerance 0.02, enzyme: trypsin, […], fixed modification: carbamidomethylation of cysteine residues and TMT of lysine and N-terminal, dynamic modification: oxidation of methionine and phosphorylation of serine, threonine and tyrosine. The data were filtered for 1% PSM and peptide level. A two-tailed t-test with 250 randomisations was performed in Perseus software (v1.6.15.0) to assess statistical significance between groups. The resulting data were visualised as a volcano plot using GraphPad Prism (v10.1.2)."}}}
{"smiles": "Cn1nc(N2CCC(=O)NC2=O)c2ccc(CN3CCN(Cc4ccc(-c5cn(-c6ccc(-c7cn8nccc(C(=O)Nc9cnccc9N9CCOCC9)c8n7)cc6)nn5)nc4)CC3)cc21", "note": "[compound 24]", "values": [{"measurement": "phospho-CRMP2 level", "setting": "[1]; concurrent with GSK3 degradation", "result": "concurrent reduction in phospho-CRMP2"}, {"measurement": "dose at which β-catenin stabilisation most clear", "setting": "[1]; highest tested dose", "result": 100, "unit": "nM"}, {"measurement": "Difference, Q5PRF9 1xPhospho [S592(100)] SAMD4B", "setting": "[2]", "result": 0.2452}, {"measurement": "Difference, Q8NEM7 1xPhospho [S437(100)] SUPT20H", "setting": "[2]", "result": 0.1561}, {"measurement": "Difference, Q96KQ7 1xPhospho [S140(100)] EHMT2", "setting": "[2]", "result": 0.2159}, {"measurement": "Difference, Q15398 1xPhospho [S725(100)] DLGAP5", "setting": "[2]", "result": -0.5208}, {"measurement": "Difference, Q15911 1xPhospho [S426(100)] ZFHX3", "setting": "[2]", "result": -0.09567}]}
